# Test results reported in ChEMBL document CHEMBL5154690, “Discovery of a tricyclic farnesoid X receptor agonist HEC96719, a clinical candidate for treatment of non-alcoholic steatohepatitis” (Eur J Med Chem, 2022).
# Calls of active or inactive are those of the source. The rule behind the calls is not given here.
# Tests used:
# [1] = Mutagenecity in Salmonella typhimurium TA102 measured by Ames test; type: toxicity; conditions: salmonella enterica subsp. enterica serovar typhimurium
# [2] = Drug recovery in stomach of male Sprague-Dawley rat at 4.5 mg/kg, po administered as C14-lableled compound and assessed as radioactivity and measured at 1 hr; type: ADME, organism-based; conditions: in vivo
# Mus musculus [3] = experiment: Anti-NASH activity in western style diet-induced nonalcoholic steatohepatitis model of male C57BL/6 mouse assessed as reduction in liver TG level at 1 mg/kg, po administered once daily from week 32 to 44; type: functional, organism-based
# Mus musculus [4] = experiment: Antifibrotic activity in C57BL/6 mouse model of CCI4-induced liver fibrosis assessed as reduction in fibrosis area at 0.1 to 1 mg/kg, po administered once daily for 4 weeks; type: functional, organism-based; conditions: dose 0.1-1 mg/kg
# [5] = Oral bioavailability in male Sprague-Dawley rat at 5 mg/kg measured by LC-MS/MS analysis; type: ADME, organism-based; conditions: in vivo
# [6] = Ratio of drug level in kidney to plasma in male Sprague-Dawley rat at 4.5 mg/kg, po administered as C14-lableled compound and measured at 0.25 to 6 hrs; type: ADME, organism-based; conditions: other tissue, time 0.25-6 hrs
# [7] = Drug recovery in plasma of male Sprague-Dawley rat at 4.5 mg/kg, po administered as C14-lableled compound and assessed as radioactivity and measured at 0.25 hrs; type: ADME, organism-based; conditions: in vivo
# [8] = Drug recovery in lung of male Sprague-Dawley rat at 4.5 mg/kg, po administered as C14-lableled compound and assessed as radioactivity and measured at 6 hrs; type: ADME, organism-based; conditions: in vivo
# [9] = AUC (0 to t) in male Sprague-Dawley rat at 5 mg/kg, po measured by LC-MS/MS analysis; type: ADME, organism-based; set-up: dose 5 mg/kg, route po; conditions: in vivo
# [10] = molecular target: T1, G-protein coupled bile acid receptor 1 (Homo sapiens) (UniProt Q8TDU6); experiment: Agonist activity in human GPBAR1 assessed as increase in intracellular cAMP level relative to control; type: functional, cell-based
# T1 sequence (whole entry): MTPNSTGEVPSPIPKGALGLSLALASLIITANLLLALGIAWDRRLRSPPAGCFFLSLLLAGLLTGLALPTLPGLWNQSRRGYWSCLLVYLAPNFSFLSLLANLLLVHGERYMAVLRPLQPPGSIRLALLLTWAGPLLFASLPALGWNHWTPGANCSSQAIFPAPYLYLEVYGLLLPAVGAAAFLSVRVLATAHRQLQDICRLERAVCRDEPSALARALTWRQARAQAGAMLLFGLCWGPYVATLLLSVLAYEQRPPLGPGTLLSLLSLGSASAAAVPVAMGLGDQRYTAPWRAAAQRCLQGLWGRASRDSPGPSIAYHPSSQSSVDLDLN
# [11] = Drug recovery in kidney of male Sprague-Dawley rat at 4.5 mg/kg, po administered as C14-lableled compound and assessed as radioactivity and measured at 1 hr; type: ADME, organism-based; conditions: in vivo
# Bile acid receptor = molecular target: T2, Bile acid receptor (Homo sapiens, UniProt Q96RI1); experiment: Agonist activity at FXR-LBD (unknown origin) assessed as induction of coactivator SRC-1 peptide recruitment measured by TR-FRET assay
# T2 sequence (Q96RI1 whole entry): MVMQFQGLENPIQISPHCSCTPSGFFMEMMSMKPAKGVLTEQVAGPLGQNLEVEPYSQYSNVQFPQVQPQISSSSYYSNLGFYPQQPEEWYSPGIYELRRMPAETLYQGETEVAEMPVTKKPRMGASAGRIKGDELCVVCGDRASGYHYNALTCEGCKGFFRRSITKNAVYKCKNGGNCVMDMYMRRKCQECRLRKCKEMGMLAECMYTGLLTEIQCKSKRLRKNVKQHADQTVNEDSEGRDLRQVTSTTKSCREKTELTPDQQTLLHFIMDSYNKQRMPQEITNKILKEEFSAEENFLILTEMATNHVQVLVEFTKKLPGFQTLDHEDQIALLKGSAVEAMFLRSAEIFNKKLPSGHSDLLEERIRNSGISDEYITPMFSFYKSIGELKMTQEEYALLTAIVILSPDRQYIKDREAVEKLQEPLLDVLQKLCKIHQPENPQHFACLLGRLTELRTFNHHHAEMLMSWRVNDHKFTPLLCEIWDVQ
# [12] = Drug recovery in kidney of male Sprague-Dawley rat at 4.5 mg/kg, po administered as C14-lableled compound and assessed as radioactivity and measured at 0.25 hrs; type: ADME, organism-based; conditions: in vivo
# [13] = Mutagenecity in Salmonella typhimurium TA97A measured by Ames test; type: toxicity; conditions: salmonella enterica subsp. enterica serovar typhimurium
# [14] = Drug recovery in kidney of male Sprague-Dawley rat at 4.5 mg/kg, po administered as C14-lableled compound and assessed as radioactivity and measured at 6 hrs; type: ADME, organism-based; conditions: in vivo
# [15] = Drug recovery in kidney of male Sprague-Dawley rat at 4.5 mg/kg, po administered as C14-lableled compound and assessed as radioactivity and measured at 24 hrs; type: ADME, organism-based; conditions: in vivo
# Mus musculus [16] = experiment: Anti-NASH activity against high fat (HF) diet-induced nonalcoholic steatohepatitis in leptin-deficient ob/ob mouse model assessed as reduction in serum ALT level at 3 mg/kg, po administered once daily from week 5 to 10; type: functional, organism-based
# [17] = Drug recovery in heart of male Sprague-Dawley rat at 4.5 mg/kg, po administered as C14-lableled compound and assessed as radioactivity and measured at 1 hr; type: ADME, organism-based; conditions: in vivo
# [18] = Drug recovery in ileum of male Sprague-Dawley rat at 4.5 mg/kg, po administered as C14-lableled compound and assessed as radioactivity and measured at 1 hr; type: ADME, organism-based; conditions: in vivo
# Estrogen receptor = molecular target: T3, Estrogen receptor (Homo sapiens, UniProt P03372); experiment: Agonist activity at estrogen receptor alpha (unknown origin)
# T3 sequence (P03372 whole entry): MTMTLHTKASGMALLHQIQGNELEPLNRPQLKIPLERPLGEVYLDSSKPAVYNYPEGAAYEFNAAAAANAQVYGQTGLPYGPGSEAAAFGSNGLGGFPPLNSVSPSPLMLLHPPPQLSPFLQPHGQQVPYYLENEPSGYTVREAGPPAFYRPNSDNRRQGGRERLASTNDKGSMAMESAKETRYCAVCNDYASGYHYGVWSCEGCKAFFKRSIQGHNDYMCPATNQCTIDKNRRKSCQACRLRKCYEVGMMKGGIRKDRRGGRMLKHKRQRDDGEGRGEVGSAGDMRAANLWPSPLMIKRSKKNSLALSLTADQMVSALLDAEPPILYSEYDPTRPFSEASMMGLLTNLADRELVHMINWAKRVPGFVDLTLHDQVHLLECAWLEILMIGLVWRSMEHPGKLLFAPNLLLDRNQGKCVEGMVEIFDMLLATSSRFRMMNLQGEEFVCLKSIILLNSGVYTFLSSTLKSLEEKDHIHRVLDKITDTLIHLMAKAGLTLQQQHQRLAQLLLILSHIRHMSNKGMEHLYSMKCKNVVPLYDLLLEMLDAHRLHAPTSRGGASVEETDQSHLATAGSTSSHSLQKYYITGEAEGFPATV
# [19] = Drug recovery in skin of male Sprague-Dawley rat at 4.5 mg/kg, po administered as C14-lableled compound and assessed as radioactivity and measured at 0.25 hrs; type: ADME, organism-based, Skin of body; conditions: in vivo
# [20] = Oral bioavailability in male Beagle dog at 5 mg/kg measured by LC-MS/MS analysis; type: ADME, organism-based, Canis lupus familiaris; conditions: in vivo
smiles,measurement,setting,value
O=C(O)c1ccc2c(c1)Oc1ccc(OCc3c(-c4c(Cl)cccc4Cl)noc3C3CC3)nc1C1(CC1)C2,Activity,[1],Non-Toxic
same,Drug recovery,[2],1536 ngequiv/g
same,Activity,Mus musculus [3],Active
same,Activity,Mus musculus [4],Active
same,bioavailability,[5],50.8%
same,Ratio,[6],1.8
same,Drug recovery,[7],229 ngequiv/g
same,Drug recovery,[8],63.4 ngequiv/g
same,AUC(0-t),[9],1180 ng·h/mL
same,Activity,[10],29%
same,Drug recovery,[11],457 ngequiv/g
same,EC50,Bile acid receptor,1.37 nM
same,Drug recovery,[12],281 ngequiv/g
same,Activity,[13],Non-Toxic
same,Drug recovery,[14],67.8 ngequiv/g
same,Drug recovery,[15],74.4 ngequiv/g
same,Activity,Mus musculus [16],Active
same,Drug recovery,[17],341 ngequiv/g
same,Drug recovery,[18],1553 ngequiv/g
same,EC50,Estrogen receptor,> 10000 nM
same,Drug recovery,[19],33.3 ngequiv/g
same,bioavailability,[20],42.3%
